Measurements reported in patent US20240148821A1, “PHARMACEUTICAL USE OF CYCLIC PEPTIDE COMPOUND” (CHUGAI SEIYAKU KABUSHIKI KAISHA, priority 2021, published 2024).
pIC50: −log10 of the molar value. Numbered stars: 1 amine (or outer) side, 2 acyl side, 3 side chain; on linkers, the order of the positions; unused ones are H or OH. Bridge positions count the residues as written; N and C are the ends. Square brackets hold non-standard residues; d marks the D form. Peptide text beside a SMILES is read from it. * marks the point of attachment. hPhe(3-Cl-4-CF3) = N[C@@H](CCc1ccc(C(F)(F)F)c(Cl)c1)C(=O)O; NMePhe(4-Me) = CN[C@@H](Cc1ccc(C)cc1)C(=O)O; NMePhe(2-Cl) = CN[C@@H](Cc1ccccc1Cl)C(=O)O; X133 = O=C(C[C@H](N[*:1])C(F)(F)F)[*:2]; X42 = CC(C)C[C@H](CC(=O)[*:2])N(C)[*:1]; NMeGly(cBu) = CN[C@H](C(=O)O)C1CCC1; NMeCha = CN[C@@H](CC1CCCCC1)C(=O)O; X4 = C#CC[C@H](CC(=O)[*:2])N[*:1]; NMeI = CC[C@H](C)[C@H](NC)C(=O)O; d(β3hL) = CC(C)C[C@@H](N)CC(=O)O; NMeD = CN[C@@H](CC(=O)O)C(=O)O; NMeL = CN[C@@H](CC(C)C)C(=O)O; NMeNle = CCCC[C@H](NC)C(=O)O; NMeV = CN[C@H](C(=O)O)C(C)C; d(β3hA) = C[C@@H](N)CC(=O)O; NMeAbu = CC[C@H](NC)C(=O)O; NMeS = CN[C@@H](CO)C(=O)O; Morpholide = C1CN(*)CCO1; NMeA = CN[C@@H](C)C(=O)O; Piperidide = C1CCN(*)CC1; Pyrrolidide = C1CCN(*)C1; dNMeA = CN[C@H](C)C(=O)O; Ac5c = NC1(C(=O)O)CCCC1; Aze = O=C(O)[C@@H]1CCN1; Sar = CNCC(=O)O; Propyl = CCC*

Each molecule was assayed against protein-protein interaction between Kras and SOS1 (biotin-tagged human Kras loaded with GDP, His-tagged human SOS1) (Homo sapiens (Human), UniProt P01116, G12D) (assay: Protein-protein interaction inhibition between Kras and SOS1 (KrasG12D-SOS PPI) using AlphaScreen). Details: AlphaScreen; biotin-tagged human Kras loaded with GDP, His-tagged human SOS1; read-out: KRAS G12D-SOS PPI IC50.
Format: biochemical

**Q.** CC[C@H](C)[C@@H]1NC(=O)[C@H](CC(C)C)N(C)C(=O)C[C@@H](C(F)(F)F)NC(=O)[C@H]([C@@H](C)CC)N(C)C(=O)C2(CCCC2)NC(=O)[C@@H]2CCCN2C(=O)[C@H](CCc2ccc(C(F)(F)F)c(Cl)c2)NC(=O)CN(C)C(=O)[C@H](Cc2ccc(C)cc2)N(C)C(=O)[C@@H]2CCN2C(=O)[C@H](C)N(C)C1=O [Compound 1919] (cyclo([Ac5c][NMeI][X133][NMeL]I[NMeA][Aze][NMePhe(4-Me)][Sar][hPhe(3-Cl-4-CF3)]P)) was tested. Which pIC50 did it give?
**A.** 6.68

**Q.** How did the pIC50 turn out when CC[C@H](C)[C@@H]1NC(=O)[C@H](CC(C)C)N(C)C(=O)C[C@@H](C(=O)N(C)C)N(C)C(=O)[C@H]([C@@H](C)CC)N(C)C(=O)C2(CCCC2)NC(=O)[C@@H]2CCCN2C(=O)[C@H](CCc2ccc(C(F)(F)F)c(Cl)c2)NC(=O)CN(C)C(=O)[C@H](C2CCC2)N(C)C(=O)[C@@H]2CCN2C(=O)[C@H](C)N(C)C1=O [Compound 1961] ([NMeL]I[NMeA][Aze][NMeGly(cBu)][Sar][hPhe(3-Cl-4-CF3)]P[Ac5c][NMeI][NMeD]-NMe2; lactam N-11) was run?
**A.** 8.74

**Q.** How did the pIC50 turn out when C#CC[C@@H]1CC(=O)N(C)[C@@H](CC(C)C)C(=O)N[C@@H]([C@@H](C)CC)C(=O)N(C)[C@@H](C)C(=O)N2CC[C@H]2C(=O)N(C)[C@@H](Cc2ccc(C)cc2)C(=O)N(C)CC(=O)N[C@@H](CCc2ccc(C(F)(F)F)c(Cl)c2)C(=O)N2CCC[C@H]2C(=O)NC2(CCCC2)C(=O)N(C)[C@@H]([C@@H](C)CC)C(=O)N1 [Compound 1967] (cyclo([Ac5c][NMeI][X4][NMeL]I[NMeA][Aze][NMePhe(4-Me)][Sar][hPhe(3-Cl-4-CF3)]P)) was run?
**A.** 7.11

**Q.** With CC[C@H](C)[C@@H]1NC(=O)[C@H](CC(C)C)N(C)C(=O)C[C@@H](CC(C)C)N(C)C(=O)[C@H]([C@@H](C)CC)N(C)C(=O)C2(CCCC2)NC(=O)[C@@H]2CCCN2C(=O)[C@H](CCc2ccc(C(F)(F)F)c(Cl)c2)NC(=O)CN(C)C(=O)[C@H](Cc2ccc(C)cc2)N(C)C(=O)[C@@H]2CCN2C(=O)[C@H](C)N(C)C1=O [Compound 1974] (cyclo([Ac5c][NMeI][X42][NMeL]I[NMeA][Aze][NMePhe(4-Me)][Sar][hPhe(3-Cl-4-CF3)]P)) as the molecule, how does the pIC50 read?
**A.** 7.35

**Q.** How did the pIC50 turn out when CC[C@H](C)[C@@H]1NC(=O)[C@H](CC(C)C)N(C)C(=O)C[C@@H](CC(C)C)NC(=O)[C@H]([C@@H](C)CC)N(C)C(=O)C2(CCCC2)NC(=O)[C@@H]2CCCN2C(=O)[C@H](CCc2ccc(C(F)(F)F)c(Cl)c2)NC(=O)CN(C)C(=O)[C@H](Cc2ccc(C)cc2)N(C)C(=O)[C@@H]2CCN2C(=O)[C@H](C)N(C)C1=O [Compound 1995] (cyclo([Ac5c][NMeI][d(β3hL)][NMeL]I[NMeA][Aze][NMePhe(4-Me)][Sar][hPhe(3-Cl-4-CF3)]P)) was run?
**A.** 6.47

**Q.** With CC[C@H](C)[C@@H]1NC(=O)[C@H](C)N(C)C(=O)C[C@@H](C(=O)N2CCCCC2)N(C)C(=O)[C@H](C(C)C)N(C)C(=O)C2(CCCC2)NC(=O)[C@H](Cc2ccccc2Cl)N(C)C(=O)[C@H](CCc2ccc(C(F)(F)F)c(Cl)c2)NC(=O)CN(C)C(=O)[C@H](Cc2ccc(C)cc2)N(C)C(=O)CN(C)C(=O)CN(C)C1=O [Compound 2007] ([NMeA]I[Sar][Sar][NMePhe(4-Me)][Sar][hPhe(3-Cl-4-CF3)][NMePhe(2-Cl)][Ac5c][NMeV][NMeD]-Piperidide; lactam N-11) as the molecule, how does the pIC50 read?
**A.** 6.64

**Q.** How did the pIC50 turn out when CC[C@H](C)[C@@H]1NC(=O)[C@H](C)N(C)C(=O)C[C@@H](C(=O)N2CCCC2)N(C)C(=O)[C@H](C(C)C)N(C)C(=O)C2(CCCC2)NC(=O)[C@H](Cc2ccccc2Cl)N(C)C(=O)[C@H](CCc2ccc(C(F)(F)F)c(Cl)c2)NC(=O)CN(C)C(=O)[C@H](CC2CCCCC2)N(C)C(=O)CN(C)C(=O)CN(C)C1=O [Compound 2008] ([NMeA]I[Sar][Sar][NMeCha][Sar][hPhe(3-Cl-4-CF3)][NMePhe(2-Cl)][Ac5c][NMeV][NMeD]-Pyrrolidide; lactam N-11) was run?
**A.** 6.85

**Q.** How did the pIC50 turn out when CC[C@H](C)[C@@H]1NC(=O)[C@H](C)N(C)C(=O)C[C@@H](C)NC(=O)[C@H](C(C)C)N(C)C(=O)C2(CCCC2)NC(=O)[C@@H]2CCCN2C(=O)[C@H](CCc2ccc(C(F)(F)F)c(Cl)c2)NC(=O)[C@@H](C)N(C)C(=O)[C@H](CC2CCCCC2)N(C)C(=O)[C@@H]2CCCN2C(=O)[C@@H]2CCN2C1=O [Compound 2009] (cyclo([Ac5c][NMeV][d(β3hA)][NMeA]I[Aze]P[NMeCha][dNMeA][hPhe(3-Cl-4-CF3)]P)) was run?
**A.** 7.09

**Q.** With CC[C@H](C)[C@@H]1NC(=O)[C@H](C)N(C)C(=O)C[C@@H](C)NC(=O)[C@H](C(C)C)N(C)C(=O)C2(CCCC2)NC(=O)[C@@H]2CCCN2C(=O)[C@H](CCc2ccc(C(F)(F)F)c(Cl)c2)NC(=O)[C@@H](C)N(C)C(=O)[C@H](CC2CCCCC2)N(C)C(=O)[C@@H]2CCN2C(=O)[C@H](CC)N(C)C1=O [Compound 2012] (cyclo([Ac5c][NMeV][d(β3hA)][NMeA]I[NMeAbu][Aze][NMeCha][dNMeA][hPhe(3-Cl-4-CF3)]P)) as the molecule, how does the pIC50 read?
**A.** 6.70

**Q.** With CC[C@H](C)[C@@H]1NC(=O)[C@H](C)N(C)C(=O)C[C@@H](C)NC(=O)[C@H](C(C)C)N(C)C(=O)C2(CCCC2)NC(=O)[C@@H]2CCCN2C(=O)[C@H](CCc2ccc(C(F)(F)F)c(Cl)c2)NC(=O)[C@@H](C)N(C)C(=O)[C@H](CC2CCCCC2)N(C)C(=O)[C@@H]2CCN2C(=O)[C@@H]2CCN2C1=O [Compound 2013] (cyclo([Ac5c][NMeV][d(β3hA)][NMeA]I[Aze][Aze][NMeCha][dNMeA][hPhe(3-Cl-4-CF3)]P)) as the molecule, how does the pIC50 read?
**A.** 6.82

**Q.** How did the pIC50 turn out when CCCOC[C@H]1C(=O)N2CC[C@H]2C(=O)N(C)[C@@H](CC2CCCCC2)C(=O)N(C)[C@H](C)C(=O)N[C@@H](CCc2ccc(C(F)(F)F)c(Cl)c2)C(=O)N2CCC[C@H]2C(=O)NC2(CCCC2)C(=O)N(C)[C@@H](C(C)C)C(=O)N[C@H](C)CC(=O)N(C)[C@@H](C)C(=O)N[C@@H]([C@@H](C)CC)C(=O)N1C [Compound 2016] (cyclo([Ac5c][NMeV][d(β3hA)][NMeA]I[NMeS](Propyl)[Aze][NMeCha][dNMeA][hPhe(3-Cl-4-CF3)]P)) was run?
**A.** 6.57

**Q.** How did the pIC50 turn out when CCCC[C@H]1C(=O)N2CC[C@H]2C(=O)N(C)[C@@H](CC2CCCCC2)C(=O)N(C)[C@H](C)C(=O)N[C@@H](CCc2ccc(C(F)(F)F)c(Cl)c2)C(=O)N2CCC[C@H]2C(=O)NC2(CCCC2)C(=O)N(C)[C@@H](C(C)C)C(=O)N[C@H](C)CC(=O)N(C)[C@@H](C)C(=O)N[C@@H]([C@@H](C)CC)C(=O)N1C [Compound 2017] (cyclo([Ac5c][NMeV][d(β3hA)][NMeA]I[NMeNle][Aze][NMeCha][dNMeA][hPhe(3-Cl-4-CF3)]P)) was run?
**A.** 6.46

**Q.** How did the pIC50 turn out when CC[C@H](C)[C@@H]1NC(=O)[C@H](C)N(C)C(=O)C[C@@H](C)NC(=O)[C@H](C(C)C)N(C)C(=O)C2(CCCC2)NC(=O)[C@@H]2CCCN2C(=O)[C@H](CCc2ccc(C(F)(F)F)c(Cl)c2)NC(=O)[C@@H](C)N(C)C(=O)[C@H](CC2CCCCC2)N(C)C(=O)[C@@H]2CCN2C(=O)[C@H](CC(C)C)N(C)C1=O [Compound 2018] (cyclo([Ac5c][NMeV][d(β3hA)][NMeA]I[NMeL][Aze][NMeCha][dNMeA][hPhe(3-Cl-4-CF3)]P)) was run?
**A.** 6.49

**Q.** With CC[C@H](C)[C@@H]1NC(=O)[C@H](C)N(C)C(=O)C[C@@H](C(=O)N2CCOCC2)N(C)C(=O)[C@H](C(C)C)N(C)C(=O)C2(CCCC2)NC(=O)[C@H](Cc2ccccc2Cl)N(C)C(=O)[C@H](CCc2ccc(C(F)(F)F)c(Cl)c2)NC(=O)CN(C)C(=O)[C@H](CC2CCCCC2)N(C)C(=O)CN(C)C(=O)CN(C)C1=O [Compound 2020] ([NMeA]I[Sar][Sar][NMeCha][Sar][hPhe(3-Cl-4-CF3)][NMePhe(2-Cl)][Ac5c][NMeV][NMeD]-Morpholide; lactam N-11) as the molecule, how does the pIC50 read?
**A.** 6.57
